The text below walks through data of ChEMBL document CHEMBL5727915, “Substituted [5,6]cyclic-4(3H)-pyrimidinones as anticancer agents” (2020).

The target in the assay is CDC7/DBF4 (Cell division cycle 7-related protein kinase/Activator of S phase kinase) (Homo sapiens, UniProt O00311). Nature of the assay: Biochemical Assay: Biochemical assay was tested in the U-shaped bottom 384 plate (corning, #4514) with a final volume of […] at 27° C. The concentration of CDC7 was optimized by the enzyme titration experiment. CDC7 kinase was diluted in assay buffer (40 mM Tris.HCl pH 7.25, 100 ug/mL BSA, and 20 mM MgCl2) to get 2.4× enzyme solutions. Compounds were dissolved in 10 mM DMSO, and series diluted in DMSO from 0.3 mM to 0.3 nM (5 concentration pts); All dilutions were diluted 30× in assay buffer to get 6× compounds solutions. MCM2 Substrate and ATP were diluted to 2.4× mixed solution. Add 2 ul test compound solution to 384 assay plate, then add 5 ul substrate/ATP mixed solution, at last add 5 ul enzyme solution, incubate at 27° C. for 180 mins. Transfer 5 ul reaction solution to another 384 assay plate, then add 5 ul ADP-Glo™ Reagent (Promega) to each well and incubate at 27° C. for 40 mins; Add 10 ul Kinase Detection Reagent (Promega) to each well and incubate at 27° C. for 30 mins. 10 uM CDC7-3 compound was used as 100% inhibition while 100% DMSO control was used as 0% inhibition. Each test has three replications at least. It is filed as protein-complex assay. On the technique in general: In ADP-Glo the light output rises with the ADP produced.
CDC7/DBF4 (Cell division cycle 7-related protein kinase/Activator of S phase kinase), sequence (Q9UBU7 whole entry): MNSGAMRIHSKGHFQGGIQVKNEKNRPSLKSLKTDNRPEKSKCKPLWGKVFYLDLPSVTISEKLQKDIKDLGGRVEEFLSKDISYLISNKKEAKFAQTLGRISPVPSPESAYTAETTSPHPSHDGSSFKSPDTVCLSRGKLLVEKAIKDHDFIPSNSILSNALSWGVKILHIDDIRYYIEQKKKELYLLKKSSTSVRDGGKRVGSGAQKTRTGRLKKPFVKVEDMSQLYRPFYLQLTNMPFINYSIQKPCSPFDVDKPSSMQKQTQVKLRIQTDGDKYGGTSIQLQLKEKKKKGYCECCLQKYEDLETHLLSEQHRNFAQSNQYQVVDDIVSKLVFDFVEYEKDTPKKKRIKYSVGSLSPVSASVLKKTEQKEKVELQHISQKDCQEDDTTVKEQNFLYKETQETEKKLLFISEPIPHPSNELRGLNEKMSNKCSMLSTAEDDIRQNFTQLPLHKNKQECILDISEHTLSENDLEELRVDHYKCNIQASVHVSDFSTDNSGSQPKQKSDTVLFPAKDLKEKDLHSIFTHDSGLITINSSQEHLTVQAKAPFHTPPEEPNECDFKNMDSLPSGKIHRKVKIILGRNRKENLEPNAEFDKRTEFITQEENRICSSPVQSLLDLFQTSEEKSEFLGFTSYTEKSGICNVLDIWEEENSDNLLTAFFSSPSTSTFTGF
CDC7/DBF4 (Cell division cycle 7-related protein kinase/Activator of S phase kinase), sequence (O00311 whole entry): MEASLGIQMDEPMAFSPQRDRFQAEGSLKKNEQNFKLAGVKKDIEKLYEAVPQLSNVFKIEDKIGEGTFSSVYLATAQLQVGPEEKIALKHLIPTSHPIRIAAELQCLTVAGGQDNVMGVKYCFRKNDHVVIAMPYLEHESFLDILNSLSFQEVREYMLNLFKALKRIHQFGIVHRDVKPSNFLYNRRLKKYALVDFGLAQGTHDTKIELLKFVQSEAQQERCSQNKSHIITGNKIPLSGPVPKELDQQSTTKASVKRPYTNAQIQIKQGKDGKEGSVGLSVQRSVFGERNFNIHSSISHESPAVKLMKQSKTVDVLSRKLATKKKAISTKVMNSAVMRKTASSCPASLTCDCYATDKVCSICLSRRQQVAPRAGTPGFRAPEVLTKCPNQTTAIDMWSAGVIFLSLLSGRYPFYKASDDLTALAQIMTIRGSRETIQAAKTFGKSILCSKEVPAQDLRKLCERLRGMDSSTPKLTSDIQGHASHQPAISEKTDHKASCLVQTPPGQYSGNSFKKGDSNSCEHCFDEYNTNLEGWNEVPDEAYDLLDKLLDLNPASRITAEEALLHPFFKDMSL

The term IC50 denotes the point on the concentration scale where inhibition reaches its midpoint. Read a high IC50 as a need for much substance. In turn, `CC(C)[C@H](N)c1nc2cc(-c3ccnc(Cl)c3)sc2c(=O)[nH]1` yielded an IC50 of under 1 µM.
Turning to `CN[C@H](c1nc2cc(-c3ccnc(F)c3)sc2c(=O)[nH]1)C(C)C`, the IC50 was under 10 µM.
Compound `Cc1cc(-c2cc3nc([C@@H](N)C(C)C)[nH]c(=O)c3s2)ccn1` gave an IC50 of under 1 µM.
Then `CC[C@H](N)c1nc2cc(-c3ccnc(F)c3)sc2c(=O)[nH]1`, with under 1 µM.
